Where “and” joins values, the source holds several entries; their conditions need not be identical. Identical values can stand only once. Entries after “also recorded” stand apart in the source; their conditions may differ. Like-named read-outs stand apart in the source and are kept apart here.
What was measured:
serum β-glucuronidase = target: T1, serum β-glucuronidase (Rattus norvegicus, UniProt P06760); test: in vivo; format: in vivo
T1 sequence (P06760 23-648): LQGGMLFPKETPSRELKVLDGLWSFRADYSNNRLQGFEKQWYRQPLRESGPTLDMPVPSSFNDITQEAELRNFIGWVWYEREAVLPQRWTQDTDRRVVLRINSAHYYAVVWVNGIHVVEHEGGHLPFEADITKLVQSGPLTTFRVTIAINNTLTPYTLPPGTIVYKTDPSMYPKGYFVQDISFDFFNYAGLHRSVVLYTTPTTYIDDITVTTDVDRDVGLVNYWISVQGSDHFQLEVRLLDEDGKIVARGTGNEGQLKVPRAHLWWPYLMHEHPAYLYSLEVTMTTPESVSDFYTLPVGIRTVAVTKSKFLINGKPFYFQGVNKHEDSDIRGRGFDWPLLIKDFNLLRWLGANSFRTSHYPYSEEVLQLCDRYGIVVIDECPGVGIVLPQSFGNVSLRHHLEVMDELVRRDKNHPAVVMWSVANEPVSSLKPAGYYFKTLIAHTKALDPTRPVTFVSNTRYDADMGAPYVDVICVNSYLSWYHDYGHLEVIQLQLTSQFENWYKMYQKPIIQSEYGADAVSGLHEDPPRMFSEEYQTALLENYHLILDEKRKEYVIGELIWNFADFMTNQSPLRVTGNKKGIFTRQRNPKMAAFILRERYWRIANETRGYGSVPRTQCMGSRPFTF
Protocol: GL was synthesized and microencapsulated to give sustained-release GL (EGL), by an established procedure used to microencapsulate ascorbic acid, as reported in Samejima, M. et al., Chem. Pharm. Bull., (Tokyo) 1982, 30:2894-2899. In this procedure, the GL as a fine powder is added to a stirred mixture of cyclohexane, polyisobutylene as coacervation-inducing agent and ethylcellulose as wall-forming material. The addition of GL is at 78° C., then phase separation is induced by lowering the temperature first to 40° C., then to 25° C. The microcapsules, which have thick walls, are washed with cyclohexane and dried. […] DAGDL, calcium D-glucarate (CGT), and potassium hydrogen D-glucarate (PGT) were synthesized. For comparison of efficacy of the inhibitors, 1,5 mmoles/kg (GL, EGL or DAGDL) or 4.5 mmoles/kg (CGT or PGT) of the inhibitor in 1.0 ml of sesame oil or vehicle only (controls) was administered to rats by stomach tube at zero time. Blood samples were obtained from different rats by cardiac puncture under ether anesthesia. The serum was prepared and assayed for β-glucuronidase activity using a commerical diagnostic kit sold by Sigma Chemical Company, St. Louis, MO. The assay is based on the hydrolysis of phenolphthalein-glucuronide and quantitation of phenolphthalein in alkaline medium at […]. For tests of anti-carcinogencity, the inhibitors were administered by stomach tube in 1.0 ml of sesame oil 30 minutes before and again at 2.5 hours after the carcinogen, for DAGDL, or 3 hours and 30 minutes before the carcinogen, for EGL, CGT, and PGT. The controls received sesame oil only by stomach tube.
At the time periods indicated above blood samples were obtained from rats under ether aneathesia by cardiac puncture, the serum was then prepared and assayed for β-glucuronidase activity using a commercial diagnostic kit sold by Sigma Chem. Co., St. Louis, MO.
For the inhibition of the initiation stage, CGT was given by gavage in two doses (4.5 mmoles/kg/dose) at 3 hours and again at 0.5 hours before carcinogen administration. […] The concentrations of CGT were incorporated into the powdered chow diet. The blood samples were obtained 10 days after the initiation of the CGT feeding.
DAGDL or GL (1.5 mmol/kg) in 1.0 ml of sesame oil, or vehicle only (controls) was administered to rats by stomach tube at zero time. […] The serum was prepared and assayed for β-glucuronidase activity using a commercial diagnostic kit sold by Sigma Chemical Company, St. Louis, MO. The assay is based on the hydrolysis of phenolphthalein-glucuronide and quantitation of phenolphtalein in alkaline medium at 550 nm.

60 kd oncofetal protein = test: effect of β-glucuronidase inhibitors on carcinogen induction of the 60 kd factor in plasma (cell-free RNA transport assay); format: in vivo, rat
[1] = Description: In the long term feeding experiments in which CGT intake was over an extended period of time, at the termination of the experiment the following organs were examined macroscopically and weighed: liver, kidneys, adrenals.
The adrenals were slightly (ca 20%) smaller by weight in the group receiving 10% CGT supplemented chow.

[2] = test system: Estrogen and Androgen Levels
[3] = rat, in vivo, ip
Protocol: TCDD was administered i.p. in a single dose of 40 μg/kg in sesame oil (0.5 ml) to 125 gm female Sprague Dawley rats. One group of 4 rats received 2 doses of CGT (4.5 mmole/kg) in sesame oil (1.0 ml) by stomach tube at 3 hours and a second dose at 0.5 hours before treatment with TCDD. A second, TCDD-treated group received oil only in place of the CGT. Control rats received oil only by stomach tube and i.p. injection.

Morris Hepatoma 7777 = test: growth of transplanted Morris Hepatoma 7777; format: in vivo, rat; conditions: 2% CGT diet from one week before transplant, male Buffalo rats
Protocol: One group of male Buffalo rats was put on 2% CGT diet one week before the hepatoma transplant, while the other group of rats (controls) was kept on the regular chow diet. A minimum number of Morris Hepatoma 7777 cells consistent with tumor growth were innoculated subcutaneously in the left flank of all rats. Tumor diameters were measured at least twice weekly, and tumor volume was calculated.

[4] = second dose of DAGDL 3 hours after the initial dose, 2.5 hours after carcinogen
[5] = carcinogen 7,12-Dimethylbenz[a]anthracene, 21 days post-treatment
[6] = +DAGDL (1.5% DAGDL diet), female Sprague Dawley rats
[7] = +DAGDL (1.5% DAGDL diet), male Sprague Dawley rats
[8] = +CGT, 50 day old Sprague Dawley female rats

SMILES: CC(=O)O[C@@H]1C(=O)O[C@H]2[C@@H]1OC(=O)[C@@H]2OC(C)=O [DAGDL, 2,5-di-O-acetyl-D-glucaro-1,4;6,3-dilactone]
- time to 50% inhibition of serum β-glucuronidase (serum β-glucuronidase; 1.5 mmol/kg): ≤ 0.5 h
- time for which 50% inhibition or greater is maintained (serum β-glucuronidase; 1.5 mmol/kg, single dose): approximately 3 hours
- reduction of serum β-glucuronidase activity (serum β-glucuronidase; 1.5 mmoles/kg i.g., assayed 1 hour after administration): 80%
- effect of carcinogen co-administration on degree of β-glucuronidase inhibition (serum β-glucuronidase; carcinogen co-administered): not influenced significantly
- inhibition at 1500 µmol/kg (serum β-glucuronidase; rat, 1.5 mmol/kg, within 0.5 hour of administration): 50%
- duration of approximately 50% inhibition after second dose (serum β-glucuronidase; [4]): up to 6 hours
- inhibition of β-glucuronidase after second dose (serum β-glucuronidase; [4]): approximately 50%
- time-course of serum β-glucuronidase inhibition (serum β-glucuronidase; single i.g. dose 1.5 mmoles/kg (GL, DAGDL, EGL)): marked and prolonged inhibition; also recorded: more prolonged inhibition
- 60 kd factor in plasma, MNU with inhibitor (60 kd oncofetal protein; 504 h): 1.2 Units
- Percent Inhibition of the induction of the 60 kd factor (60 kd oncofetal protein; carcinogen 2-Acetylaminofluorene, 21 days post-treatment): 66%
- Percent Inhibition of the induction of the 60 kd factor (60 kd oncofetal protein; [5]): 77%
- Percent Inhibition of the induction of the 60 kd factor (60 kd oncofetal protein; carcinogen Benzo[a]pyrene, 21 days post-treatment): 76%
- decrease of adrenal weight ([1]; DAGDL supplemented chow): 20-30%
- sex hormone levels ([2]; 1.5% DAGDL diet, male and female rats): reduces sex hormone levels; also recorded: lower steady state level of steroid hormones
- 17-Ketosteroids (urinary excretion) [2, 6]: 12 μg/100 g body wt × 24 hrs
- Estradiol (serum) [2, 6]: 140 pmol/L
- 17-Ketosteroids (urinary excretion) [2, 7]: 17 μg/100 g body wt × 24 hrs
- Testosterone (serum) [2, 7]: 9 nmol/L

SMILES: O=C([O-])[C@@H](O)[C@@H](O)[C@H](O)[C@@H](O)C(=O)[O-].[Ca+2] [CGT, calcium D-glucarate]
- reduction of serum β-glucuronidase activity (serum β-glucuronidase; rat, in vivo): 50% and 80%
- reduction of serum β-glucuronidase levels by dietary CGT (serum β-glucuronidase; rat, in vivo): 50%
- time-course of serum β-glucuronidase inhibition (serum β-glucuronidase; rat, in vivo): prolonged inhibition
- Percent Inhibition of the induction of the 60 kd factor (60 kd oncofetal protein; carcinogen 1,2-Dimethylhydrazine, 21 days post-treatment): 60%
- Percent Inhibition of the induction of the 60 kd factor (60 kd oncofetal protein; carcinogen 1-Nitropyrene, 21 days post-treatment): 50%
- Percent Inhibition of the induction of the 60 kd factor (60 kd oncofetal protein; carcinogen 2-Naphthylamine, 21 days post-treatment): 49%
- Percent Inhibition of the induction of the 60 kd factor (60 kd oncofetal protein; carcinogen 3-Methylcholanthrene, 21 days post-treatment): 43%
- Percent Inhibition of the induction of the 60 kd factor (60 kd oncofetal protein; [5]): 83%
- Percent Inhibition of the induction of the 60 kd factor (60 kd oncofetal protein; carcinogen N-Nitrosodibutylamine, 21 days post-treatment): 53% and > 50%
- Percent Inhibition of the induction of the 60 kd factor (60 kd oncofetal protein; carcinogen N-Nitrosodiethylamine, 21 days post-treatment): 41%
- Percent Inhibition of the induction of the 60 kd factor (60 kd oncofetal protein; carcinogen N-Nitrosodimethylamine, 21 days post-treatment): 76%
- Percent Inhibition of the induction of the 60 kd factor (60 kd oncofetal protein; carcinogen N-Nitrosoethylurea, 21 days post-treatment): 68%
- Percent Inhibition of the induction of the 60 kd factor (60 kd oncofetal protein; carcinogen N-Nitrosomethylurea, 21 days post-treatment): 69%
- Percent Inhibition of the induction of the 60 kd factor (60 kd oncofetal protein; carcinogen Safrole, 21 days post-treatment): 45%
- Percent Inhibition of the induction of the 60 kd factor (60 kd oncofetal protein; rat, in vivo): 86% and 70%
- decrease of adrenal weight ([1]; rat, in vivo): ~20%
- food intake and weight-gain compared with chow diet ([1]; rat, in vivo): essentially identical to those on chow diet
- liver and kidney weights compared with controls ([1]; rat, in vivo): essentially identical in weight
- effect on TCDD toxicity [3]: definite anti-"TCDD toxicity" effect
- tumor growth compared with control group (Morris Hepatoma 7777): slightly slower
- 17-Ketosteroids (urinary excretion) [2, 8]: 13 μg/100 g body wt × 24 hrs
- Estradiol (serum) [2, 8]: 39 pg/mL
- reduction of serum estradiol level ([2]; CGT diet, female rats): 24%
- reduction of urinary 17-ketosteroid level ([2]; CGT diet, female rats): 55%
